Experimental data from patent US9120795B2, “Crystalline form of a β-lactamase inhibitor” (Cubist Pharmaceuticals, Inc., priority 2013, dated 2015).

Assays:
Ecl.569 (AmpC, clinical) = assay: Standard BLI potentiation MIC assay; assay type: cell-based, Enterobacter spp; conditions: Enterobacter, read-out: MIC of β-lactam with BLI
Method: (§1) The experimental protocol was performed according to Clinical and Laboratory Standards Institute (CLSI) guidelines with modifications as described below (CLSI guidelines can be derived from the CLSI document M07-A9 published in January 2012: “Methods for Dilution Antimicrobial Susceptibility Tests for Bacteria That Grow Aerobically; Approved Standard-Ninth Edition”).
(§2) To prepare for MIC testing, frozen glycerol stocks of clinical isolates (Klebsiella pneumoniae, Eschericia coli, Enterobacter spp, Citrobacter spp, or Pseudomonas aeruginosa) were used to streak for isolated colonies on rich, non-selective, tryptic soy agar containing 5% sheep's blood (TSAB). Frozen glycerol stocks of laboratory engineered, isogenic E. coli strains, which contain cloned β-lactamase expressing plasmids were used to streak for isolated colonies on rich, selective LB agar supplemented with 25 μg/mL tetracycline to maintain the plasmid. All strains were incubated at 37° C. for 18-24 hrs. […]
(§3) Plates were incubated for 18-20 hours at 37° C. with aeration (200 rpm). Following incubation, growth was confirmed visually placing plates over a viewing apparatus (stand with a mirror underneath) and then OD600 was measured using a SpectraMax 340PC384 plate reader (Molecular Devices, Sunnyvale, Calif.). Growth was defined as turbidity that could be detected with the naked eye or achieving minimum OD600 of 0.1. […]

[1] = system: Panel of Isogenic and Clinical Strains Expressing β-Lactamases; assay: Standard BLI potentiation MIC assay, whole panel; assay type: cell-based
Method: as §1, §2, §3

KPC-2 β-lactamase = KPC-2 β-lactamase (Klebsiella pneumoniae, UniProt Q9F663); assay: Inhibition kinetics with nitrocefin as reporter substrate; assay type: biochemical; conditions: 100 μM nitrocefin, 1×PBS pH 7.4, 25° C.
Method: Inhibition or inactivation of KPC-2 by test inhibitors was assessed using 100 μM nitrocefin (NCF) as a reporter substrate. Assays were performed in 1×PBS pH 7.4, 0.1 mg/ml BSA, in 96-well half area plates, 50 μl reaction volume. NCF was dissolved in DMSO and diluted in assay buffer. Test inhibitors were dissolved in water or DMSO and serially diluted in the assay with final concentrations between 2000-0.195 μM.
The enzyme activity in the presence of varying concentrations of test inhibitor was determined by monitoring the hydrolysis of NCF spectrophotometrically at 486 nm, for 5 minutes, 25° C., using a SpectraMax Plus384 microplate reader with SoftMax Pro software (Molecular Devices). Data analysis was performed using GraphPad Prism (GraphPad Software, Inc.).
Progress curves were fit to a first-order rate decay equation (Eq. 1) to determine kobserved (kobs).
kobs vs. inhibitor concentration [I] curves were then fit to Eq.2 to determine the inhibitor dissociation constant (K) and the first order rate constant of enzyme inactivation at infinite inhibitor concentration (kinact). […] Yt=V0*(1−e^(−kobs*t))/kobs Eq. 1 Where Y is the absorbance at time t, V0 is the uninhibited enzyme velocity, kobs is the observed rate constant of the enzyme inactivation. kobs=kinact*[I]/([I]+K(1+S/Km)) Eq. 2 Where S is the NCF concentration, Km is the KPC-2 Km for NCF.

[2] = Solid form stability at ambient conditions, XRPD; assay type: physicochemical
Method: X-Ray Powder Diffraction patterns were collected on a Bruker D8 diffractometer using Cu Kα radiation (40 kV, 40 mA), 0-20 goniometer, and divergence of V4 and receiving slits, a Ge monochromator and a Lynxeye detector. The instrument is performance checked using a certified Corundum standard (NIST 1976). The software used for data collection was Diffrac Plus XRD Commander v2.6.1 and the data were analysed and presented using Diffrac Plus EVA v13.0.0.2 or v15.0.0.0. Samples were run under ambient conditions as flat plate specimens using powder as received. The sample was gently packed into a cavity cut into polished, zero-background (510) silicon wafer. The sample was rotated in its own plane during analysis. The details of the data collection are: angular range: 2 to 42 °2θ; step size: 0.05 °2θ; collection time: 0.5 s/step. Amorphous material (˜60 mg) was generated as in Procedure 1. The amorphous material was suspended in different solvent systems (3 mL) at 50° C. A sample was withdrawn after 3 h and 24 h. The final product was filtered after 48 h and analysed by XRPD. The solids isolated were re-analysed again by XRPD after few days at ambient conditions (˜25° C. and ˜40% RH).

Sequence of KPC-2 β-lactamase (Q9F663 25-293 limits assumed): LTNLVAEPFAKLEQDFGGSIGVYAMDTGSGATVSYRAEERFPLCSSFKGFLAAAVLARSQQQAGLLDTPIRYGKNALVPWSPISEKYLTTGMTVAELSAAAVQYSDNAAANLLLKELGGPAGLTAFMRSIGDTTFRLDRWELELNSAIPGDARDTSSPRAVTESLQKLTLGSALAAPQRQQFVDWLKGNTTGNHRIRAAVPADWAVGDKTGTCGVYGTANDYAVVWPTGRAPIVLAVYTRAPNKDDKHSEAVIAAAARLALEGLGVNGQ

With O=C1N2C[C@@H](CC[C@H]2c2nnco2)N1OS(=O)(=O)[O-].[Na+] [Hydrate 1, sodium (2S,5R)-2-(1,3,4-oxadiazol-2-yl)-7-oxo-1,6-diazabicyclo[3.2.1]octan-6-yl sulfate] the MIC (Ecl.569 (AmpC, clinical)) was 0.25 to 0.5 µg/mL, the MIC50 [1] was 1 to 2 µg/mL and the MIC90 [1] was 1 to 2 µg/mL. For the same compound, the Kinact/K (KPC-2 β-lactamase) was 134000 to 163000 M⁻¹ s⁻¹, the “change of crystal form on storage” value ([2]; 25° C. at 40% relative humidity over 2 days (FIG. 2)) was “little to no change” and the “relative stability among the crystalline forms” value ([2]; ambient conditions (25° C. and 40% RH)) was “most stable crystalline form”. The “stability of the form (Summary of Forms, Description)” value ([2]; sulfate) was “Stable tri-hydrate”.
